Molecules are shown by their SMILES.

For assay [1], the target named is T1, unphosphorylated VEGF-R2Δ50 (FLVK) (Homo sapiens, UniProt P35968, DEL940-989/E990V).
T1 construct: VEGF-R2Δ50 contains residues 806–939 and 990–1171; made in house; host or cells: baculovirus/insect cell system
Kind of assay: VEGF-R2 coupled spectrophotometric assay, unphosphorylated VEGF-R2Δ50 (FLVK). In kind it is biochemical. Conditions: unphosphorylated VEGF-R2Δ50; for inhibition at 0.05 µM: 50 nM compound, read-out: FLVK (% inh @ 50 nM). From the text:
VEGF-R2 Construct for Assay:
This construct determines the ability of a test compound to inhibit tyrosine kinase activity. A construct (VEGF-R2Δ50) of the cytosolic domain of human vascular endothelial growth factor receptor 2 (VEGF-R2) lacking the 50 central residues of the 68 residues of the kinase insert domain was expressed in a baculovirus/insect cell system. Of the 1356 residues of full-length VEGF-R2, VEGF-R2Δ50 contains residues 806–939 and 990–1171, and also one point mutation (E990V) within the kinase insert domain relative to wild-type VEGF-R2. Autophosphorylation of the purified construct was performed by incubation of the enzyme at a concentration of 4 μM in the presence of 3 mM ATP and 40 mM MgCl2 in 100 mM HEPES, pH 7.5, containing 5% glycerol and 5 mM DTT, at 4° C. for 2 h. […] See Parast et al., Biochemistry, 37, 16788–16801 (1998).
Coupled Spectrophotometric (FLVK-P) Assay
The production of ADP from ATP that accompanies phosphoryl transfer was coupled to oxidation of NADH using phosphoenolpyruvate (PEP) and a system having pyruvate kinase (PK) and lactic dehydrogenase (LDH). The oxidation of NADH was monitored by following the decrease of absorbance at 340 nm (e340=6.22 cm^−1 mM^−1) using a Beckman DU 650 spectrophotometer. Assay conditions for phosphorylated VEGF-R2Δ50 (indicated as FLVK-P in the tables below) were the following: 1 mM PEP; 250 μM NADH; 50 units of LDH/mL; 20 units of PK/mL; 5 mM DTT; 5.1 mM poly(E4Y1); 1 mM ATP; and 25 mM MgCl2 in 200 mM HEPES, pH 7.5. Assay conditions for unphosphorylated VEGF-R2Δ50 (indicated as FLVK in the tables) were the following: 1 mM PEP; 250 μM NADH; 50 units of LDH/mL; 20 units of PK/mL; 5 mM DTT; 20 mM poly(E4Y1); 3 mM ATP; and 60 mM MgCl2 and 2 mM MnCl2 in 200 mM HEPES, pH 7.5. Assays were initiated with 5 to 40 nM of enzyme. Ki values were determined by measuring enzyme activity in the presence of varying concentrations of test compounds. […] The binding inhibitions were fitted to equation as described by Morrison. The data were analyzed using Enzyme Kinetic and Kaleidagraph software.

The test system of assay [2] is human umbilical vein endothelial cells (HUVEC). In words: HUVEC+VEGF proliferation assay. Conditions: Homo sapiens, HUVEC; VEGF 6 ng/mL, 72 h, MTT. In kind it is cell-based. The procedure: HUVEC+VEGF Proliferation Assay
This assay determines the ability of a test compound to inhibit the growth factor-stimulated proliferation of human umbilical vein endothelial cells (“HUVEC”). HUVEC cells (passage 3–4; Clonetics, Corp.) were thawed into EGM2 culture medium (Clonetics Corp) in T75 flasks. Fresh EGM2 medium was added to the flasks 24 hours later. Four or five days later, cells were exposed to another culture medium (F12K medium supplemented with 10% fetal bovine serum (FBS), 60 μg/mL endothelial cell growth supplement (ECGS), and 0.1 mg/mL heparin). Exponentially-growing HUVEC cells were used in experiments thereafter. Ten to twelve thousand HUVEC cells were plated in 96-well dishes in 100 μl of rich, culture medium (described above). The cells were allowed to attach for 24 hours in this medium. The medium was then removed by aspiration and 105 μl of starvation media (F12K+1% FBS) was added to each well. After 24 hours, 15 μl of test agent dissolved in 1% DMSO in starvation medium or this vehicle alone was added into each treatment well; the final DMSO concentration was 0.1%. One hour later, 30 μl of VEGF (30 ng/mL) in starvation media was added to all wells except those containing untreated controls; the final VEGF concentration was 6 ng/mL. Cellular proliferation was quantified 72 hours later by MTT dye reduction, at which time cells were exposed for 4 hours MTT (Promega Corp.). Dye reduction was stopped by addition of a stop solution (Promega Corp.) and absorbance at 595 nm was determined on a 96-well spectrophotometer plate reader.

For assay [3], the target named is T2, PDGFRβ (Homo sapiens, UniProt P09619).
T2 construct: expressed in transfected cells; host or cells: porcine aorta endothelial (PAE)-PDGFRβ cells
In words: PAE-PDGFRβ phosphorylation in PAE-PDGFRB cells assay. The assay is classed as cell-based. Conditions: PAE cells overexpressing human PDGFRβ, PDGF-BB stimulated; read-out: PAE PDGFR autophos IC50 (nM) AVG. The procedure: PAE-PDGFRβ Phosphorylation in PAE-PDGFRB Cells Assay
This assay determines the ability of a test compound to inhibit the autophosphorylation of PDGFRβ in porcine aorta endothelial (PAE)-PDGFRβ cells. PAE cells that overexpress human PDGFRβ were used in this assay. The cells were cultured in Ham's F12 media supplemented with 10% fetal bovine serum (FBS) and 400 ug/ml G418. Twenty thousands cells were seeded in each well of a 96-well plate in 50 μL of growth media and allowed to attach for 6 hours at 37° C. Cells were then exposed to the starvation media (Ham's F12 media supplemented with 0.1% FBS) for 16 hours. After the starvation period was over, 10 μL of test agent in 5% DMSO in starvation media were added to the test wells and 10 μL of the vehicle (5% DMSO in starvation media) were added into the control wells. The final DMSO concentration in each well was 0.5%. Plates were incubated at 37° C. for 1 hour and the cells were then stimulated with 1 μg/mL PDGF-BB (R & D System) in the presence of 2 mM Na3VO4 for 8 minutes. The cells were washed once with 1 mm Na3VO4 in HBSS and lysed by adding 50 μL per well of lysis buffer. One hundred μL of dilution buffer were then added to each well and the diluted cell lysate was transferred to a 96-well goat ant-rabbit coated plate (Pierce), which was pre-coated with Rabbit anti Human PDGFRβ antibody (Santa Cruz). The plates were incubated at room temperature for 2 hours and washed seven times with 1% Tween 20 in PBS. HRP-PY20 (Santa Cruz) was diluted and added to the plate for a 30-minute incubation. Plates were then washed again and TMB peroxidase substrate (Kirkegaard & Perry) was added for a 10-minute incubation. One hundred μL of 0.09 N H2SO4 was added into each well of the 96-well plate to stop the reaction. Phosphorylation status was assessed by spectrophotometer reading at 450 nm. IC50 values were calculated by curve fitting using a four-parameter analysis.

T2 sequence (P09619 33-1106): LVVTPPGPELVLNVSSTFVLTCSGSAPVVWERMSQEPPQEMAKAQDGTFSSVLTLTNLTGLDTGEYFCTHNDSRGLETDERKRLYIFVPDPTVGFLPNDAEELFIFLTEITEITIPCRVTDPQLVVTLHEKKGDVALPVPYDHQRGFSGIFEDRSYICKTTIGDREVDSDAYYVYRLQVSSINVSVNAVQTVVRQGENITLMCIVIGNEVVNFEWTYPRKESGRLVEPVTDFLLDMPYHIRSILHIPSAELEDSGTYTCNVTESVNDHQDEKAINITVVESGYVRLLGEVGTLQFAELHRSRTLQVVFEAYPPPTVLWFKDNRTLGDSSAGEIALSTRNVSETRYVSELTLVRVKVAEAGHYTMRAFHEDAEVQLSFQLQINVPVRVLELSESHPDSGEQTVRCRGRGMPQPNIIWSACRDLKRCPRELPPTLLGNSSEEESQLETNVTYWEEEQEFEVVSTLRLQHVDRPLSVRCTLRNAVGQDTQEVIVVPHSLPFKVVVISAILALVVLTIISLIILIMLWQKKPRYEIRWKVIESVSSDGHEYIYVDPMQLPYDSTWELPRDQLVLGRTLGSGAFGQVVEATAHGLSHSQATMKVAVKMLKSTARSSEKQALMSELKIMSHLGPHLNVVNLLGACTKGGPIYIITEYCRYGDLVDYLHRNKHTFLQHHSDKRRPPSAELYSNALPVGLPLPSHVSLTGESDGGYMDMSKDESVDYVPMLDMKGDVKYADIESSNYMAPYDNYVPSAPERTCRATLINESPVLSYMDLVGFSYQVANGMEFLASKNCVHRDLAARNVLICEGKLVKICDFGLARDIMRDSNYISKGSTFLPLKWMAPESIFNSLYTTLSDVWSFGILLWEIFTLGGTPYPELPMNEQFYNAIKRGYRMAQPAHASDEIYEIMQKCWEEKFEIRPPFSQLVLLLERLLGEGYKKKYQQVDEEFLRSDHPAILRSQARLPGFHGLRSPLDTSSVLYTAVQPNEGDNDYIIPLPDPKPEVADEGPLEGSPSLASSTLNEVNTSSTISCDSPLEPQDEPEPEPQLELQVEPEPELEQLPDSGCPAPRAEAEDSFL
T1 sequence (P35968 with tags, fused parts or gaps DEL940-989/E990V limits assumed): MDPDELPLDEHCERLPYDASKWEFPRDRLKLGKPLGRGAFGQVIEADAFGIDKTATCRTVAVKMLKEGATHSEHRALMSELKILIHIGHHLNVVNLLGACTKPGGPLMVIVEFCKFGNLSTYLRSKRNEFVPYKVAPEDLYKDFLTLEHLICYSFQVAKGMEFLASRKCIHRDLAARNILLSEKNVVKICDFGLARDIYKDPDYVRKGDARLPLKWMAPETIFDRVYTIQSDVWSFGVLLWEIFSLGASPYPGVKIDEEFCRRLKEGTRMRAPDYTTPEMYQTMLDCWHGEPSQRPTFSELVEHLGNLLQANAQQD

`CNC(=O)c1c(C)n(C)c2cc(Oc3ccnc4cc(C(=O)N5C[C@@H](O)[C@@H](O)C5)sc34)ccc12` [Example 37, 6-[2-(3,4-Dihydroxy-pyrrolidine-1-carbonyl)-thieno[3,2-b]pyridin-7-yloxy]-1,2-dimethyl-1H-indole-3-carboxylic acid methylamide]: in assay [1], the inhibition at 0.05 µM amounted to 66% and the Ki turned out to be 4.3 nM. The IC50 in assay [2] amounted to 10 nM.

With `CNC(=O)c1c(C)n(C)c2cc(Oc3ccnc4cc(-c5cncnc5)sc34)ccc12` [Example 39, 1,2-Dimethyl-6-(2-pyrimidin-5-yl-thieno[3,2-b]pyridin-7-yloxy)-1H-indole-3-carboxylic acid methylamide], the IC50 in assay [3] is 61 nM. For the same compound, in assay [1], the inhibition at 0.05 µM was found to be 12% and the Ki came out at 47 nM. Further, the IC50 in assay [2] came to 8.7 nM.

Turning to `CNC(=O)c1c(C)n(C)c2cc(Oc3ccnc4cc(-c5ccccn5)sc34)ccc12` [Example 42, 1,2-Dimethyl-6-(2-pyridin-2-yl-thieno[3,2-b]pyridin-7-yloxy)-1H-indole-3-carboxylic acid methylamide], the IC50 in assay [3] was found to be 8.9 nM. Further, in assay [1], the inhibition at 0.05 µM was found to be 76% and the Ki was determined as 2.8 nM. The IC50 in assay [2] stood at 4.34 nM.

For `CNC(=O)c1csc(-c2cc3nccc(Oc4ccc5c(C(=O)NC)c(C)n(C)c5c4)c3s2)n1` [Example 43, 1,2-Dimethyl-6-[2-(4-methylcarbamoyl-thiazol-2-yl)-thieno[3,2-b]pyridin-7-yloxy]-1H-indole-3-carboxylic acid methylamide], in assay [1], the inhibition at 0.05 µM is 67% and the Ki amounted to 3.21 nM. For the same compound, in assay [2], the IC50 is 10 nM.

Turning to `CNC(=O)c1c(C)n(C)c2cc(Oc3ccnc4cc(C(=O)N5CCC(CN)C5)sc34)ccc12` (centres unmarked) [Example 45, 6-[2-(3-Aminomethyl-pyrrolidine-1-carbonyl)-thieno[3,2-b]pyridin-7-yloxy]-1,2-dimethyl-1H-indole-3-carboxylic acid methylamide], in assay [3], the concentration for half-maximal inhibition (IC50) turned out to be 26.9 nM. In addition, in assay [1], the inhibition at 0.05 µM worked out at 64% and the Ki is 4.65 nM. Besides, the 50% inhibitory concentration (IC50) in assay [2] was found to be 10 nM.

As to `CNCC1CCN(C(=O)c2cc3nccc(Oc4ccc5c(C(=O)NC)c(C)n(C)c5c4)c3s2)C1` (centres unmarked) [Example 46, 1,2-Dimethyl-6-[2-(3-methylaminomethyl-pyrrolidine-1-carbonyl)-thieno[3,2-b]pyridin-7-yloxy]-1H-indole-3-carboxylic acid methylamide], in assay [1], the inhibition at 0.05 µM came out at 68% and the affinity corresponds to a Ki of 6.49 nM. Moreover, the IC50 in assay [2] came out at 3.13 nM.

Consider `CNC(=O)c1c(C)n(C)c2cc(Oc3ccnc4cc(-c5cccc(OC)n5)sc34)ccc12` [Example 49, 6-[2-(6-Methoxy-pyridin-2-yl)-thieno[3,2-b]pyridin-7-yloxy]-1,2-dimethyl-1H-indole-3-carboxylic acid methylamide], for which, in assay [1], the inhibition at 0.05 µM turned out to be 67% and the affinity corresponds to a Ki of 16 nM. Also, the half-maximal inhibitory concentration (IC50) in assay [2] came to 7 nM.

For the compound `CCC(=O)c1cc2nccc(Oc3ccc4c(C(=O)NC)c(C)n(C)c4c3)c2s1` [Example 51, 1,2-Dimethyl-6-(2-propionyl-thieno[3,2-b]pyridin-7-yloxy)-1H-indole-3-carboxylic acid methylamide], in assay [1], the inhibition at 0.05 µM was 34% and affinity was put at a Ki of 27.7 nM. In addition, in assay [2], the concentration for half-maximal inhibition (IC50) was 82 nM.

`Cc1c(C(=O)NCC2CC2)c2ccc(Oc3ccnc4cc(-c5nccn5C)sc34)cc2n1C` [Example 55, N-(Cyclopropylmethyl)-1,2-dimethyl-6-{[2-(1-methyl-1H-imidazol-2-yl)thieno[3,2-b]pyridin-7-yl]oxy}-1H-indole-3-carboxamide]: the IC50 in assay [3] was found to be 31 nM. Moreover, in assay [1], the inhibition at 0.05 µM amounted to 62% and the Ki amounted to 4.86 nM. In addition, the half-inhibitory concentration (IC50) in assay [2] came out at 5.8 nM.

As for `Cc1c(C(=O)NC(C)C)c2ccc(Oc3ccnc4cc(-c5nccs5)sc34)cc2n1C` [Example 66, 1,2-Dimethyl-6-(2-thiazol-2-yl-thieno[3,2-b]pyridin-7-yloxy)-1H-indole-3-carboxylic acid isopropylamide], the half-inhibitory concentration (IC50) in assay [3] worked out at 90.7 nM. In assay [1], the inhibition at 0.05 µM was 75% and the inhibition constant (Ki) came out at 5.2 nM. The IC50 in assay [2] was determined as 5.8 nM.

Turning to `Cc1oc2cc(Oc3ccnc4cc(C(=O)N5CCC[C@H]5CO)sc34)ccc2c1C(=O)NCC(C)C` [Example 86, 2-Methyl-6-[2-(2-hydroxymethyl-pyrrolidine-1-carbonyl)-thieno[3,2-b]pyridin-7-yloxy]-benzofuran-3-carboxylic acid isobutyl amide], in assay [3], the IC50 turned out to be 17.9 nM. In addition, in assay [1], the inhibition at 0.05 µM was determined as 81% and affinity was put at a Ki of 1.44 nM. In addition, the concentration for half-maximal inhibition (IC50) in assay [2] was 3.07 nM.

`CCc1oc2cc(Oc3ccnc4cc(C(=O)N5CCC5)sc34)ccc2c1C(=O)NC` [Example 98, 6-[2-(Azetidine-1-carbonyl)-thieno[3,2-b]pyridin-7-yloxy]-2-ethyl-benzofuran-3-carboxylic acid methylamide]: the 50% inhibitory concentration (IC50) in assay [3] worked out at 127 nM. In addition, in assay [1], the inhibition at 0.05 µM was 86% and the Ki came out at 0.38 nM. For the same compound, the IC50 in assay [2] stood at 9.4 nM.

`CO[C@@H]1CCN(C(=O)c2cc3nccc(Oc4ccc5c(C(=O)NCCO)c(C)sc5c4)c3s2)C1` [Example 123, 6-[(2-{[(3R)-3-Methoxypyrrolidin-1-yl]carbonyl}thieno[3,2-b]pyridin-7-yl)oxy]-2-methylbenzo[b]thiophene-3-carboxylic acid 2-hydroxyethylamide]: the IC50 worked out at 229 nM in assay [3] and 10 nM in assay [2]. For the same compound, the inhibition at 0.05 µM in assay [1] was 74%. In addition, in assay [1], the affinity, expressed as Ki, was 2.63 nM.

As a reminder, the Ki is a measure of affinity in units of concentration, obtained from inhibition or displacement. A low value points to tighter binding. One may read the IC50 as the midpoint of a concentration-inhibition curve.

These data come from patent publication US7045528B2, “Benzofused heterozryl amide derivatives of thienopyridines useful as therapeutic agents, pharmaceutical compositions including the same, and methods for their use” (Agouron Pharmaceuticals, Inc., priority 2002, dated 2006).
